# Columns and labels:
# EGFR = biological target: T1, EGFR (Homo sapiens, UniProt P00533); experiment: EGFR ELISA assay (in vitro kinase activity, EGFR captured from A431 cell lysate); type: biochemical; parameters: concentration or dose not given beside the values
# T1 construct: Add 7 ug A431 cell lysate per well (EGFR source); endogenous in cells; host or cells: A431
# How it was run: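 EGFR from A431 lysate was captured on plates coated with anti-EGFR antibody. Compounds were added 30 min before a 5 min phosphorylation with 3 µM ATP/5 mM MnCl2, which was stopped with 20 mM EDTA. Phosphotyrosine was detected with rabbit anti-phosphotyrosine, then a peroxidase-conjugated secondary and ABTS/H2O2, read at 410 nm.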
# MET = MET biochemical kinase assay; parameters: species or system human; concentration or dose not given beside the values
# How it was run: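 Colorimetric signal from an HRP-linked anti-phosphotyrosine antibody with TMB measures phosphate incorporated into immobilised MET. The receptor is pulled from lysates by a polyclonal antibody against its cytoplasmic domain, then reacts in ATP- and metal-containing buffer with test compound.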
# PDGF-R = PDGF-R (Homo sapiens, UniProt P09619); experiment: PDGF-R ELISA; type: cell-based
# Chain of PDGF-R (P09619 33-1106, species assumed): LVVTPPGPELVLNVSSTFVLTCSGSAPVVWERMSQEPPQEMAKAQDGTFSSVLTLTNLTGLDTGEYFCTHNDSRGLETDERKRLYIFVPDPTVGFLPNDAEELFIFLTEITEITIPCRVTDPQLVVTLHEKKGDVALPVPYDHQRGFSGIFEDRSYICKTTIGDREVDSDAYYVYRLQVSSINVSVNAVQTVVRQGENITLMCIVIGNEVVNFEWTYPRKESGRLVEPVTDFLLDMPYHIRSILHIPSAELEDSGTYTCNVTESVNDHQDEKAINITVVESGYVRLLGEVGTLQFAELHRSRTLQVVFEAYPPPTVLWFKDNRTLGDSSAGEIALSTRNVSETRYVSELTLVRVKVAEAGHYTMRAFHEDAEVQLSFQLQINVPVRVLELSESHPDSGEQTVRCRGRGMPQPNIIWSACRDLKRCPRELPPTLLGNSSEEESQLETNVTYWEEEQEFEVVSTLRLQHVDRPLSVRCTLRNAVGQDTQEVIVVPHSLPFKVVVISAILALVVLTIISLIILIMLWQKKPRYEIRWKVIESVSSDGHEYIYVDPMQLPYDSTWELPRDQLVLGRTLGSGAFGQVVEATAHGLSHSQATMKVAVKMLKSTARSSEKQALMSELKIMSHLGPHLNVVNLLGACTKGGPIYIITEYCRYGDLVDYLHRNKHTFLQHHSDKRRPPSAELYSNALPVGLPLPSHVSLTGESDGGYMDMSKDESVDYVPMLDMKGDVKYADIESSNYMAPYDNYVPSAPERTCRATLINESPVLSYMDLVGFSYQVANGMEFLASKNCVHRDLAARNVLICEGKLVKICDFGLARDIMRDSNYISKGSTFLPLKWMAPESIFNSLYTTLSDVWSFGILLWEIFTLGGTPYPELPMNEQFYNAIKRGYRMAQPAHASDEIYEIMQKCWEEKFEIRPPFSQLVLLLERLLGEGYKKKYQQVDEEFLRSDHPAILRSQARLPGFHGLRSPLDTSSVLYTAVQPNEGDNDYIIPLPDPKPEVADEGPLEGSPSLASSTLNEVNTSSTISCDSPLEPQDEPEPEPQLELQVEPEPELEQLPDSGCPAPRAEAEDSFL
# Source text: A PDGF-R ELISA is described in International Patent Publication No. WO 96/40116, published December 19, 1996 by Tang et al.
# T1 sequence (P00533 25-1210): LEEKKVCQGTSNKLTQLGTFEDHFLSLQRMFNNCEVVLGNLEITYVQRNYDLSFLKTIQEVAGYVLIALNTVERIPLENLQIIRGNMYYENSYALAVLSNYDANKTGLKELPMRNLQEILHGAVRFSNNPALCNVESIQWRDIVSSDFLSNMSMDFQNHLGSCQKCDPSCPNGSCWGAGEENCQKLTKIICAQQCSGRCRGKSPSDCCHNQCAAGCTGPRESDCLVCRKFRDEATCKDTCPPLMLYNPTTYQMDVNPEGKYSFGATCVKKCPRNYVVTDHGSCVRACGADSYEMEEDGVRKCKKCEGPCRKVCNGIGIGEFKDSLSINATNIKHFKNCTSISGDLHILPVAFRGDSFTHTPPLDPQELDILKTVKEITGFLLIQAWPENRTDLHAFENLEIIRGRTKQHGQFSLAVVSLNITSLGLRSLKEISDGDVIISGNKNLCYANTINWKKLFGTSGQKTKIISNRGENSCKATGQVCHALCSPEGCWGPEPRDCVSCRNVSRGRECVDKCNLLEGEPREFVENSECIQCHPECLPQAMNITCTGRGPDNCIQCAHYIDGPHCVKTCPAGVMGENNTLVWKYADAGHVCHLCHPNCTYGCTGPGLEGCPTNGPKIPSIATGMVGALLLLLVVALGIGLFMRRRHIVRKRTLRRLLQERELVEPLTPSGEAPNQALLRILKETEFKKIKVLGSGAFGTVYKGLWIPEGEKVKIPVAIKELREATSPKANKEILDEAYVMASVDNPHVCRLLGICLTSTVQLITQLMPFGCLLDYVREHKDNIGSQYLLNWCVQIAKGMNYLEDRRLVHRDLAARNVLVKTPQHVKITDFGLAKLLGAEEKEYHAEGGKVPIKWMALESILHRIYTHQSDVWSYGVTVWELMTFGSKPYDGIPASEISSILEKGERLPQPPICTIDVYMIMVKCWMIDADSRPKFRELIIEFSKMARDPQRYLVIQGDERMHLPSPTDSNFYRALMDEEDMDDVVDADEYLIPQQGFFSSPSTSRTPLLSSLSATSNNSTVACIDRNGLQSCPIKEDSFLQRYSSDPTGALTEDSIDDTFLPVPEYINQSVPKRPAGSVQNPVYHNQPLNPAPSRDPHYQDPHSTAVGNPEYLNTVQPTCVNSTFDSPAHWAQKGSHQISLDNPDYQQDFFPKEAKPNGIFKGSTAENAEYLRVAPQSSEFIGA
SMILES,Biochem EGFR %Inhibition (EGFR),Met Kinase % Inhibition (MET),PDGF Kinase %Inhibition (PDGF-R)
CNS(=O)(=O)c1ccc2c(c1)C(=CC1C=CCCC1)C(=O)N2 (stereo not drawn) [10729/D11],19.2%,18.8%,0.1%
COc1ccc2ccccc2c1C=C1C(=O)Nc2ccc(S(=O)(=O)Nc3ccc(C(F)(F)F)cc3)cc21 [10729/E02],8.0%,11.7%,28.4%
COc1cc(C=C2C(=O)Nc3ccc(S(=O)(=O)Nc4ccc(C(F)(F)F)cc4)cc32)cc2c1OCO2 [10728/E11],-5.9%,53.1%,8.9%
CNS(=O)(=O)c1ccc2c(c1)C(=Cc1cc(C(F)(F)F)ccc1F)C(=O)N2 [10728/D08],6.9%,34.7%,2.7%
CSc1ccc(C=C2C(=O)Nc3ccc(Br)c(C)c32)cc1 [10729/C04],35.9%,20.7%,4.2%
CSc1ccc(C=C2C(=O)Nc3ccc(S(=O)(=O)Nc4ccc(C(F)(F)F)cc4)cc32)cc1 [10729/E04],19.5%,9.8%,26.5%
CNS(=O)(=O)c1ccc2c(c1)C(=Cc1sccc1C)C(=O)N2 [10729/D05],22.1%,28.1%,2.3%
